pIC50: −log10 of the molar value. Numbered stars: 1 amine (or outer) side, 2 acyl side, 3 side chain; on linkers, the order of the positions; unused ones are H or OH. Bridge positions count the residues as written; N and C are the ends. Square brackets hold non-standard residues; d marks the D form. Peptide text beside a SMILES is read from it. hPhe = N[C@@H](CCc1ccccc1)C(=O)O; NMeN = CN[C@@H](CC(N)=O)C(=O)O; CO = O=C([*:1])[*:2]
Columns and labels:
[1] = tested on: trypsin; assay: Trypsin inhibition assay; format: biochemical; settings: class symbol in IC50 column
Description: The tests were performed in triplicates.
Table S2. Conditions and solvents used in the enzyme inhibition assays.
Enzyme Substrate Inhibitor bation time (min) ngth
Carboxypeptidase-A N-(4-methoxy-phenyl- Carboxypeptidase
(Sigma-Aldrich; azoformyl)-Phe-OH inhibitor from 5 min;
1.6 µM Montclair, CA, USA) (Sigma-Aldrich)
Elastase N-succinyl-Ala-Ala-Ala-p- Elastatinal
(Sigma-Aldrich) nitroanilide (Sigma-Aldrich) 20 min;
Thrombin N-p-tosyl-Gly-Pro-Lys-p- AEBSF
(Sigma-Aldrich) nitroanilide acetate salt (Sigma-Aldrich) 10 min;
Trypsin N-α-benzoyl-DL-arginine- Aprotinine
(Sigma-Aldrich) p-nitroanilide (Sigma-Aldrich) 15 min;
Figure S2. MRM chromatograms of anabaenopeptins produced by N. edaphicum CCNP1411.

[2] = tested on: CPA; design: method as in PMID 11000037, PMID 10340607, PMID 27641470; settings: ref [9],[23],[87]; read-out: IC50 against CPA; cited from earlier work

Compound | Enzyme Inhibition TRY (activity class) [1] | pIC50 [2]
CC[C@H](C)[C@@H]1NC(=O)[C@H](NC(=O)N[C@H](C(=O)O)C(C)C)CCCCNC(=O)[C@H](Cc2ccccc2)NC(=O)[C@H](CC(N)=O)NC(=O)[C@H](CCc2ccccc2)NC1=O [AP806Ne, [Lys–Leu*–Hph–Asn–Phe]CO–Val] ({Val-CO}-[dK]I[hPhe]NF; lactam 1-C) | – (not active (inhibition below 10%)) | –
CC[C@H](C)[C@H](NC(=O)N[C@@H]1CCCCNC(=O)[C@H](Cc2ccccc2)NC(=O)[C@H](CC(N)=O)N(C)C(=O)[C@H](CCc2ccccc2)NC(=O)[C@H]([C@@H](C)CC)NC1=O)C(=O)O [AP SA6, [Lys–Leu*–Hph–MeAsn–Phe]CO–Leu*] ({Ile-CO}-[dK]I[hPhe][NMeN]F; lactam 1-C) | – (not active (inhibition below 10%)) | –
Tyr+CO[Lys+Ile+Hty+MeHty+Ile] [AP G] | – | 8.70

Reference: PMC9564503, “Anabaenopeptins from Nostoc edaphicum CCNP1411” (International Journal of Environmental Research and Public …, 2022)
